# Test results: patent US20240165072A1, “PHARMACEUTICAL COMPOSITION FOR ALLEVIATING OR TREATING HAIR LOSS THROUGH INFLAMMATION AMELIORATION OF HUMAN DERMAL PAPILLA CELLS AND PERIPHERAL CELLS AND INHIBITION OF 5A-REDUCTASE EXPRESSION” (BEN'S LAB. CO. LTD., priority 2021, published 2024)
# Where two headings read alike, the source gives them in different places.
# What was measured:
# [1] = tested on: inducible nitric oxide synthase (iNOS); experiment: iNOS expression inhibition in LPS-stimulated RAW 264.7 (Western blot); type: cell-based, mouse; conditions: 25 μg/ml, LPS 100 ng/ml, Western blot (FIG. 1)
# Procedure: (§1) Mouse macrophage RAW 264.7 was dispensed into a 6-well plate at a concentration of 6×10^5 cells/well (number of cells per well), and cultured in an incubator at 37° C. under 5% CO2 using a DMEM Dulbecco's Modified Eagle's Medium (Sigma-Aldrich, Cat. No. D7777) for 24 hours, and then samples were added according to the concentrations.
# (§2) Thirty minutes after the addition of the sample, lipopolysaccharide (LPS, 100 ng/ml) was added, and further cultured for 20 hours. After that, the medium was removed, washed with phosphate buffered saline (PBS) to collect the cells. In order to extract the protein, a lysis buffer for radioimmunoprecipitation assay (RIPA; sodium chloride 150 mM, sodium dodecyl sulfate (SDS) 0.1%, tris-hydrochloric acid (Tris-HCl: pH 7.5) 50 mM, ethylenediaminetetraacetic acid (EDTA) 2 mM, sodium deoxycholate 0.5%, Triton X-100 1%) was added and reacted, and then centrifuged at 10,000 rpm and 4° C. for 15 minutes to obtain the supernatant. The absorbance of the supernatant was then measured at 595 nm to determine the protein concentration of each sample. Then, the cell protein sample was mixed with sodium dodecyl sulfate (SDS) and a stain, and subjected to electrophoresis on a 12% SDS polyacrylamide gel. […]
# [2] = tested on: nitric oxide production in RAW 264.7 cells; experiment: Inhibitory effect on nitric oxide production in macrophages (Griess); type: cell-based, mouse; conditions: LPS 1 μg/ml, RAW 264.7 (FIG. 2); for inhibition of nitric oxide production, rank among the three samples: compared with kaempferol
# Procedure: RAW 264.7 cells, which is a mouse macrophage cell line, were dispensed in a 24-well plate at a concentration of 2×10^5 cells/well, and cultured in an incubator at 37° C. under 5% CO2 for 24 hours. Epigallocatechin gallate (EGCG), genistein, and kaempferol, which were samples dissolved in DMSO, were added thereto according to the concentrations. At this time, the final concentration of DMSO was adjusted to 0.1%. After 30 minutes, LPS (lipopolysaccharide), which is an inflammation inducing substance, was added at a concentration of 1 μg/ml. After that, these were cultured in an incubator at 37° C. under 5% CO2 for 24 hours.
# To quantify nitric oxide, 50 ? of Griess reagent A (5% phosphoric acid, 1% sulfanilamide) was added to 50 ? of the cell culture medium, and then the mixture was allowed to stand in a dark place for 5 minutes. 50 ? of Griess reagent B (0.1% N-(1-naphthyl)ethylenediamine dihydrochloride) was further added thereto, and allowed to react in a dark place for 5 minutes. The absorbance of this reactant was measured at 540 nm, which was compared with the standard curve to calculate the final concentration of nitrogen monoxide. A standard curve was obtained by reacting in the same manner as above using sodium nitrite instead of the cell culture medium and then measuring the absorbance.
# [3] = tested on: IL-6 release in mouse macrophages RAW 264.7 cells; experiment: Inhibition of IL-6 secretion in macrophages (ELISA); type: cell-based; conditions: for IC50: Mus musculus, RAW264.7, LPS 100 ng/ml
# Procedure: (§3) Mouse macrophage RAW 264.7 was dispensed into a 24-well plate at a concentration of 2×10^5 cells/well, and cultured in an incubator at 37° C. under 5% CO2 using a DMEM medium for 24 hours, and then samples were added according to the concentrations. Thirty minutes after addition of the sample, LPS (100 ng/ml) was added and cultured at 37° C. for 20 hours to collect the culture medium. The secreted IL-6 and TNF-α were respectively quantified using Mouse IL-6 ELISA kit (Invitrogen, Thermo Scientific) and Mouse TNF-α ELISA kit (Invitrogen, Thermo Scientific).
# [4] = tested on: TNF-α release in mouse macrophages RAW 264.7 cells; experiment: Inhibition of TNF-α secretion in macrophages (ELISA); type: cell-based; conditions: for IC50: Mus musculus, RAW264.7, LPS 100 ng/ml
# Procedure: as §3
# 5α-reductase type II = experiment: Inhibition of 5α-reductase type II expression in human dermal papilla cells (Western blot); type: cell-based; conditions: HFDPC; testosterone 10 μM; 72 hours; samples 10, 20 μg/ml; order genistein, kaempferol, EGCG (FIG. 4)
# Procedure: The medium was then removed, and cells were collected by washing with PBS to extract proteins. To extract a protein, a lysis buffer for radio immunoprecipitation assay (RIPA) (sodium chloride 150 mM, sodium dodecyl sulfate (SDS) 0.1%, tris-hydrochloric acid (Tris-HCl: pH 7.5) 50 mM, ethylenediaminetetraacetic acid (EDTA) 2 mM, sodium deoxycholate 0.5%, Triton X-100 1%) was added and reacted, and then centrifuged at 10,000 rpm and 4° C. for 15 minutes to collect the supernatant. Then, the absorbance was measured at 595 nm to determine the protein concentration of each sample. These cell protein samples were mixed with sodium dodecyl sulfate (SDS) and a stain, and subjected to electrophoresis on a 12% SDS polyacrylamide gel.
# 5-lipoxygenase (5-LO) = experiment: Inhibition of 5-lipoxygenase (5-LO) expression in RBL-2H3 (Western blot); type: cell-based, rat; conditions: Compound 48/80 1 mg/ml (FIG. 5)
# Procedure: White rat basophilic leukemia cells (RBL-2H3) were dispensed into a 6-well plate at a concentration of 3×10^5 cells/well, and cultured in an incubator at 37° C. under 5% CO2 using a DMEM medium for 24 hours. Samples were added according to the concentrations, cultured for 24 hours, and then Compound 48/80 (1 mg/ml), which is substance that induces an allergic reaction, was added, and cultured for 1 hour. After that, the medium was removed, and washed with PBS to collect the cells, and then proteins were extracted. To extract protein, lysis buffer for radioimmunoprecipitation assay (RIPA; sodium chloride 150 mM, sodium dodecyl sulfate (SDS) 0.1%, tris-hydrochloric acid (Tris-HCl: pH 7.5) 50 mM, ethylenediaminetetraacetic acid (EDTA) 2 mM, sodium deoxycholate 0.5%, Triton X-100 1%) was added and reacted, and then centrifuged at 10,000 rpm and 4° C. for 15 minutes to take the supernatant. The absorbance thereof was then measured at 595 nm to determine the protein concentration of each sample. Then, the cell protein sample was mixed with sodium dodecyl sulfate (SDS) and a stain, and subjected to electrophoresis on a 12% SDS polyacrylamide gel. […]
# [5] = tested on: histamine release in RBL-2H3 cells; experiment: Inhibition of histamine release in RBL-2H3 cells (Compound 48/80); type: cell-based, rat
# Procedure: White rat basophil leukemia cells (RBL-2H3) were dispensed into a 24-well plate at a concentration of 1×10^5 cells/well, and cultured for 24 hours. Samples were added according to the concentrations. After 1 hour, Compound 48/80 (1 mg/ml), which triggers an allergic reaction, was added and cultured for 20 minutes. The well plate was allowed to stand in a refrigerator at 4° C. for 10 minutes, and then the medium was collected and the amount of histamine released into the medium was quantified using the Histamine ELISA kit (Neogen).
# [6] = DPPH radical scavenging ability; type: biochemical; conditions: for DPPH radical scavenging ability (IC50): DPPH 300 μM, 30 minutes
# Procedure: 100 ? l sample and the same amount of DPPH (2,2-diphenyl-1-picrylhydrazyl, 300 μM) solution were mixed in a 96-well plate, and reacted in a dark place for 30 minutes, and the absorbance was measured at 520 nm. The same amount of ethanol was reacted instead of the sample, and the blank value was calculated according to the following Equation.
# DPPH radical scavenging ability (%)=[1−(A−B)/C]×100
# wherein, A is the absorbance of the sample-added group (DPPH+sample); B is the absorbance of the ethanol-added group (sample+ethanol) instead of DPPH; and C is the absorbance of the ethanol-added group (DPPH+ethanol) instead of the sample.
# [7] = ABTS radical scavenging ability; type: biochemical; conditions: for ABTS radical scavenging ability (IC50): 10 minutes, absorbance 734 nm
# Procedure: The ABTS radical scavenging ability was calculated according to the following Equation.
# ABTS radical scavenging ability (%)=[1−(AB)/C]×100
# wherein, A is the absorbance of the sample-added group (ABTS+sample); B is the absorbance of the distilled water-added group (sample+distilled water) instead of ABTS; and C is the absorbance of the ethanol-added group (ABTS+ethanol) instead of the sample.
# [8] = tested on: IL-6 secretion in human follicle dermal papilla cells (HFDPC); conditions: TST or DHT 10 μM, 72 hours (FIG. 3)
# Procedure: Human follicle dermal papilla cells (HFDPC) were dispensed into a 12-well plate at a concentration of 1×10^5 cells/well, and cultured for 24 hours. After that, the medium was replaced with Dulbecco's modified eagle's medium (DMEM) containing no fetal bovine serum (FBS), and subjected to starvation for 24 hours, and then samples were added according to the concentrations (2, 5, 10, 20 μg/ml). […] Then, the medium was collected, and IL-6 secreted in the medium was quantified using a Human IL-6 ELISA kit (Invitrogen, Thermo Scientific).
# cyclooxygenase-2 (COX-2) = experiment: COX-2 expression inhibition in LPS-stimulated RAW 264.7 (Western blot); type: cell-based, mouse; conditions: 25 μg/ml, LPS 100 ng/ml, Western blot (FIG. 1)
# Procedure: as §1, §2
# [9] = highest inhibitory effect among EGCG, genistein, kaempferol
# [10] = Rattus norvegicus, Compound 48/80 1 mg/ml
Compound,IC50 ([3]; 20 hours) [µg/mL],IC50 ([4]; 20 hours) [µg/mL],inhibition of 5α-reductase type II expression (5α-reductase type II),"IC50 [5, 10] [µg/mL]",DPPH radical scavenging ability (IC50) [6] [µg/mL],ABTS radical scavenging ability (IC50) [7] [µg/mL],"inhibition of nitric oxide production, rank among the three samples [2]",further results
O=c1c(O)c(-c2ccc(O)cc2)oc2cc(O)cc(O)c12 [Kaempferol],5.93 ± 0.07,13.6 ± 0.72,effectively inhibited,0.2 ± 0.02,11.66 ± 0.30,6.18 ± 0.08,–,"inhibition of iNOS expression [1]: inhibited the expression of iNOS to the control (CON) levels; inhibition of nitric oxide production ([2]; 20 μg/ml): inhibited almost to the control level; inhibition of IL-6 in macrophages (in words) [3, 9]: effectively inhibited; inhibition of TNF-α in macrophages (in words) [4, 9]: effectively inhibited; inhibition of 5-LO expression (5-lipoxygenase (5-LO)): effectively inhibits 5-LO expression at the lowest concentration; inhibition at 0.2 µg/mL ([5]; Rattus norvegicus, at 0.2 μg/ml): > 50%; inhibition of the release of IL-6 by DHT or TST ([8]; 10 μg/ml): almost completely inhibited"
"O=C(O[C@@H]1Cc2c(O)cc(O)cc2O[C@@H]1c1cc(O)c(O)c(O)c1)c1cc(O)c(O)c(O)c1 [Epigallocatechin gallate (EGCG), Epigallocatechin gallate]",–,–,effectively inhibited,–,3.40,1.65,next most inhibitory,"IL-6 (IC50) ([3]; LPS 100 ng/ml, 20 hours): 98.99 ± 10.87 µg/mL; TNF-α (IC50) ([4]; LPS 100 ng/ml, 20 hours): 83.68 ± 3.45 µg/mL; histamine release inhibition (IC50) ([5]; Compound 48/80 1 mg/ml): 50.0 ± 9.80 µg/mL"
O=c1c(-c2ccc(O)cc2)coc2cc(O)cc(O)c12 [Genistein],8.92 ± 0.08,14.99 ± 0.11,effectively inhibited,> 1000,–,–,slightly decreased the inhibitory power,"inhibition of COX-2 expression (cyclooxygenase-2 (COX-2)): mostly inhibited the expression of COX-2; inhibition at 1000 µg/mL ([5]; Rattus norvegicus, at 1000 μg/ml): 46%; DPPH radical scavenging ability ([6]; at 100 ppm): 5.18% at 100 ppm; ABTS radical scavenging ability ([7]; at 100 ppm): 5.29% at 100 ppm; inhibition of the release of IL-6 by DHT or TST ([8]; 5 μg/ml): almost completely inhibited"
